According to ChEMBL document CHEMBL1145448, “Synthesis and evaluation of tripodal peptide analogues for cellular delivery of phosphopeptides” (J Med Chem, 2007):
Non-standard residues stand in square brackets, D forms with d. Residues, ends and D or L forms follow the SMILES beside them. *: point of attachment. X1 = O=C(O)c1cc(C(=O)*)ccc1-c1c2ccc(=O)cc-2oc2cc(O)ccc12; pY = N[C@@H](Cc1ccc(OP(=O)(O)O)cc1)C(=O)O; 12Ado = NCCCCCCCCCCCC(=O)O

Experiments:
[1] = Cellular uptake in BT20 cells in presence of 77 mM sodium azide; format: ADME, cell-based; conditions: human, bt-20
[2] = Cytotoxicity against BT20 cells by cell viability assay; format: cell-based; conditions: human, bt-20

Activity [1]	Structure (SMILES)	Activity [2]
Active	N=C(N)NCCC[C@H](NC(=O)CCCCCCCCCCCNC(=O)[C@H](CCCNC(=N)N)NC(=O)CCCCCCCCCCCNC(=O)[C@H](CCCCN)NC(=O)CNC(=O)c1ccc(-c2c3ccc(=O)cc-3oc3cc(O)ccc23)c(C(=O)O)c1)C(=O)O (X1-GK[12Ado]R[12Ado]R-OH)	> 96%
–	CC[C@H](C)[C@H](NC(=O)[C@H](CCC(=O)O)NC(=O)[C@H](CCC(=O)O)NC(=O)[C@H](Cc1ccc(OP(=O)(O)O)cc1)NC(=O)CNC(=O)c1ccc(-c2c3ccc(=O)cc-3oc3cc(O)ccc23)c(C(=O)O)c1)C(=O)O (X1-G[pY]EEI-OH)	> 96%
